Reference: US20220339135A1, “COMPOSITIONS AND METHODS FOR MODULATING AN INFLAMMATORY RESPONSE” (Enzychem Lifesciences Corporation, priority 2019, published 2022)

Assays:
[1] = test system: chemotherapy-induced neutropenia; assay: Chemotherapy-induced neutropenia in pancreatic cancer patients; assay type: in vivo, human
From the text: From January 2014 to September 2014, 16 patients with histologically or cytologically confirmed unresectable pancreatic cancer were enrolled in this study. […] Historical controls were also recruited from Asan Medical Center from March 2012 to December 2013. The eligibility criteria for the control group were the same as those for cases who intake PLAG during gemcitabine-based chemotherapy. The control group (n=32) was matched to the PLAG group (n=16) based on age, performance status, chemotherapy cycle, comorbidity, and disease extent. This study was approved by a hospital institutional review board.
All patients received gemcitabine 1,000 mg/m^2 on days 1, 8, and 15 of each 4-week schedule and daily erlotinib at 100 mg orally. In the PLAG group, PLAG 500 mg was orally administered twice daily from the start of the chemotherapy to the completion. Hematology and serum chemistry analyses were performed at screening baseline, then weekly until the end of the study. Febrile neutropenia (FN) was defined as an ANC of less than 1,000/mm^3 and an oral temperature of more than 38° C. on the same day or the following day after chemotherapy. If on the day of chemotherapy administration, a patient's ANC was reduced to 500-1,000/mm^3 or if the absolute platelet count was reduced to 50,000-100,000/mm^3, the gemcitabine dose was reduced by 75%. Gemcitabine was omitted for 1 week if the neutrophil count was lower than 500/mm^3, or the absolute platelet count was lower than 50,000/mm^3. […] Erlotinib dose was interrupted in patients within tolerable rash and was reduced or discontinued if symptoms persisted for 10-14 days. Erlotinib dose was reduced for grade 2 diarrhea persisting for 48-72 h and for grade 3 diarrhea following resolution to grade 1; erlotinib was permanently discontinued for grade 4 diarrhea. Treatment continued until disease progression unacceptable toxicity, withdrawal of patient's consent or physician's decision. Safety was evaluated throughout the entire study. Toxicity was graded based on the NCI Common Terminology Criteria for Adverse Events (CTCAE) version 3.0.
The primary endpoint was neutropenia, and the secondary endpoint was a safety profile. All analyses were performed using SPSS version 17.0 (SPSS Inc., Chicago, Ill., USA). Descriptive statistics were used to evaluate demographics, and safety data continuous variables were compared using the Mann-Whitney U test, paired t-test, and independent T-test. A P value of <0.05 was considered statistically significant.

[2] = test system: HMGB1, S100A8, S100A9, LDH in supernatant of THP-1 cells; assay: MSU-induced DAMP and LDH release; assay type: cell-based, human; details: PLAG 100 μg/ml, MSU 400 μg/ml
Experimental: THP-1 cells were divided into two groups: 1) MSU treated group and 2) MSU/PLAG treated group. For MSU treated group, THP-1 cells were stimulated with monosodium urate (MSU) crystal (400 μg/ml) for 0, 15, 30, 60 minutes. For MSU/PLAG treated group, THP-1 cells were pre-incubated with PLAG (100 μg/ml) for 1 hour and then stimulated with monosodium urate (MSU) crystal (400 μg/ml) for 0, 15, 30, 60 minutes. Then, cells were centrifuged, and the supernatant was harvested. Add 50 μL 5×SDS sample buffer to 200 μL supernatant of THP-1 cells. Proteins from each sample were separated by sodium dodecyl sulfate (SDS)-polyacrylamide gel electrophoresis on 8% polyacrylamide gels and the proteins were blotted onto a PVDF membrane (Millipore Corporation, Germany). The membrane was blocked with 5% non-fat dried milk (BD bioscience) in PBS containing 0.05% Tween-20 (Calbiochem) for 1 hour. The membrane was incubated with anti-high mobility group box 1 (HMGB1) (abcam), anti-S100A9 (abcam) at 4° C. overnight. After washing with PBS containing 0.05% Tween-20, the membrane was stained with goat anti-rabbit IgG peroxidase (ENZO). Target proteins were detected with Immobilon Western Chemiluminescent HRP Substrate (Millipore Corporation). Lactate dehydrogenase (LDH) of Supernatant was measured using the LDH assay kit.

[3] = test system: ADORA2A on the surface of HaCaT cells; assay: IMQ-induced ADORA2A trafficking, confocal microscopy; assay type: cell-based; details: IMQ 5 μg/ml after PLAG 100 μg/ml 1 hour
Experimental: HaCaT cells were divided into two groups: 1) IMQ treated group and 2) IMQ/PLAG treated group. For IMQ treated group, cells were stimulated with IMQ (5 μg/ml) for 0, 2.5, 5, 7.5, 10, 15, 30, 60, 120 minutes. For IMQ/PLAG treated group, cells were pre-incubated with PLAG (100 μg/ml) for 1 hour and then stimulated with IMQ (5 μg/ml) for 0, 2.5, 5, 7.5, 10, 15, 30, 60, 120 minutes. (A) To detect ADORA2A on the membrane surface, cells were fixed with 2% paraformaldehyde (Sigma-Aldrich) and were blocked with PBS containing 1% BSA (Gibco, Waltham, Mass., USA). They were incubated with rabbit anti-ADORA2A antibody (Thermo) and Alexa488 conjugated anti-rabbit IgG (Invitrogen) without permeabilization. (B) To detect intracellular ROS, cells were treated with FITC conjugated-CM-H2DCFDA (Invitrogen, Carlsbad, Calif., USA) for 30 min before PLAG treating. For confocal microscopy analysis, cells were washed with PBS and mounted in DAPI-containing fluorescence microscopy mounting medium (Invitrogen). Samples were analyzed with a laser scanning confocal microscope (Carl Zeiss, Oberkochen, Germany).

## CCCCC/C=C\C/C=C\CCCCCCCC(=O)OC(COC(C)=O)COC(=O)CCCCCCCCCCCCCCC (racemic) [PLAG, 1-palmitoyl-2-linoleoyl-3-acetylglycerol]
[1]; PLAG 500 mg orally twice daily with gemcitabine + erlotinib, n=16
  incidence of neutropenia (ANC<1,500/mm^3, grade 2-4): 37.5%
[1]; PLAG group
  ANC nadir (relative to baseline): about 0.75
  febrile neutropenia (FN): did not occur
[1]; PLAG group vs control group
  severe neutropenia (ANC<500/mm^3, grade 4): developed only in the control group
[1]; including nausea/vomiting, bone pain, fatigue, liver dysfunction
  adverse events related to PLAG during chemotherapy: no adverse events related to PLAG
[1]; vs control group, P<0.05
  decrease of ANCs from the baseline level: decreased significantly less
[2]
  release of MSU crystal-induced HMGB1, S100A8, S100A9 and LDH to the supernatant: modulated the release
[3]
  GPCR (ADORA2A) returns to its membrane: 10 min
  GPCR (ADORA2A) trafficking starts: 2.5 min
